Source: US5827895A, “Hexahydrolupulones useful as anticancer agents” (Regents of the University of Minnesota, priority 1996, dated 1998)
pIC50: −log10 of the molar value. In brackets after ≈: the same amount, converted by molar mass. Where two headings read alike, the source gives them in different places.

Tests used:
[1] = test system: MCF-7 cells (human breast adenocarcinoma); assay: Trypan blue exclusion assay, cytostatic activity, MCF-7; assay type: cell-based; settings: MCF7, incubation 48h, 3 experiments, read-out: ID50 (the source's name)
[2] = test system: CEM cells (human acute lymphoblastic leukemia); assay: Trypan blue exclusion assay, cytostatic activity, CEM; assay type: cell-based; settings: CCRF-CEM, incubation 48h, 4 experiments, read-out: ID50 (the source's name)
[3] = test system: Raji cells (human Burkitt lymphoma); assay: Trypan blue exclusion assay, cytostatic activity, Raji; assay type: cell-based; settings: incubation 24h, 4 experiments, read-out: ID50 (the source's name)
[4] = test system: KB cells (human oral epidermoid carcinoma); assay: Trypan blue exclusion assay, cytostatic activity, KB; assay type: cell-based; settings: incubation 48h, 3 experiments, read-out: ID50 (the source's name)
[5] = test system: HeLa S3 cells (human cervical epithelioid carcinoma); assay: Trypan blue exclusion assay, cytostatic activity, HeLa S3; assay type: cell-based; settings: incubation 24h, 3 experiments, read-out: ID50 (the source's name)
MCF-7 cells = assay: Colony formation (clonogenic) assay, cytotoxic activity, 18 hour pulse exposure; assay type: cell-based; settings: Homo sapiens, MCF7, 2 experiments, read-out: ID50 (the source's name)
Experimental: HHC was tested for cytotoxic activity using a colony formation assay, using an 18 hour pulse exposure. The purpose of the clonogenic assay is to determine the concentration of HHC at which 50% of cell growth is inhibited (i.e., IC50) when cells are exposed to the HHC for a defined amount of time (i.e., a pulse exposure to the xenobiotic).
Five ml of a mixture of 2×10^5 cells/ml (MCF-7 cells) were placed in each of 4 T-25 flasks in a media of RPMI (Gibco). The cells were incubated at 37 ° C. under 5% CO2 for a minimum of 14 hours to allow the cells to attach. The cells were pulsed for 18 hours with HHC concentrations of 0, 1.5, and 25 μM, or with DMSO.
The media was removed from the flasks (i.e., media with floating cells) and placed in 15 ml polypropylene centrifuge tubes 1-4 (summarized in Table II). […]
The cells in the original cell suspension (i.e., in the flask) were counted using trypan blue exclusion assay (described in Example II). Based on this count, the number of cells in the 50x tubes were calculated. The volume necessary to acquire approximately 5400 cells was then determined. […]
Five ml of suspension from each of tubes 13-16 was transferred to 60×15 mm tissue culture dishes (in triplicate). […] The cells were counted in those colonies which consisted of at least 50 cells. The ID50 was determined as described in Example II.

[6] = test system: C1300 cells (mouse neuroblastoma); assay: In vitro ID50 in C1300 mouse neuroblastoma cells; assay type: cell-based; settings: Neuroblastoma cell; 48 hours of continuous exposure; preliminary data
Experimental: C1300 cells (mouse neuroblastoma), a murine tumor cell model which is sensitive to HHC were evaluated.

Staphylococcus aureus = assay: Growth of Staphylococcus aureus in LB broth by OD600 (FIG. 1); assay type: cell-based; settings: 0.5-25 μM
Experimental: A single colony of Staphylococcus aureus was grown in 2 ml of Luria-Bertani(LB) broth overnight at 37° C. in a bacterial shaker with vigorous shaking. 0.5 ml of the culture was transferred to 250 ml LB and allowed to grow at 37° C. until the OD600 (optical density) reading was about 0.2 (a reading of 1 OD600 indicates a cell concentration of approximately 8×10^8 cells/ml). […] No-drug and DMSO solvent were used as controls. Aliquots of the bacterial culture were taken every 2 hours to obtain the OD600 reading.

Staphylococcus Aureas = assay: Minimum inhibitory concentration, Staphylococcus aureus; assay type: cell-based
[7] = test system: MRSA (Methicillin resistant Staphylococcus A.); assay: Minimum inhibitory concentration, MRSA; assay type: cell-based, Staphylococcus aureus
[8] = test system: DNA, RNA or protein synthesis; assay: Other studies on DNA, RNA or protein synthesis in cancer cells; assay type: cell-based
[9] = test system: VRE (Vancomycin Resistant Enterococcus faeclum); settings: threshold not given
[10] = Mannering et al.; cited from earlier work
Pseudomonas = assay: Minimum inhibitory concentration, Pseudomonas
[11] = test system: MRSA (Methicillin Resistant Staphylococcus aureus); assay: Patient isolates evaluated for antibiotic sensitivity, MRSA; settings: for antibiotic sensitivity: threshold not given
[12] = test system: OxaRSA (Oxacillin Resistant Staphylococcus aureus); assay: Patient isolates evaluated for antibiotic sensitivity, OxaRSA
Experimental: HHC was also tested for effectiveness against various bacterial isolates obtained from human subjects.

[13] = Staphylococcus aureus, read-out: [HHC] (MIC)

SMILES: CC(C)CCC1=C(O)C(C(=O)C(C)C)=C(O)C(CCC(C)C)(CCC(C)C)C1=O [HHC, hexahydrocolupulone]
- pIC50 [1]: 5.91
- pIC50 [2]: 5.71
- pIC50 [3]: 5.66
- pIC50 [4]: 6.07
- pIC50 [5]: 5.92
- pIC50 (MCF-7 cells): 5.79
- pIC50 [6]: ~5.71
- inhibition of bacterial growth (OD600) (Staphylococcus aureus): effective inhibitor of bacterial growth
- MIC (Staphylococcus Aureas; Staphylococcus Aureas, read-out: MIC): 5 µM
- MIC (Staphylococcus Aureas; read-out: MIC, HHC positive control): 2.03 µg/mL
- MIC ([7]; MRSA): 2.5 µM (≈ 1.02 µg/mL)
- cross resistance with other antibiotics ([7]; drug resistant MRSA): HHC is not
- cytotoxic effect on cancer cells: effects upon DNA, RNA or protein synthesis [8]: not due to major effects upon DNA, RNA or protein synthesis
- antibiotic sensitivity ([9]; patient A): S
- antibiotic sensitivity ([9]; patient B): S
- antibiotic sensitivity ([9]; patient C): S
- activity relative to non-hydrogenated parent [10]: more active than colupulone
- MIC (Pseudomonas): > 100 µM
- MIC [11, 13]: 1.01 µg/mL (≈ 2.5 µM)
- antibiotic sensitivity ([11]; patient D): S
- [HHC] (MIC) ([11]; patient E): 1.015 µg/mL
- antibiotic sensitivity ([11]; patient E): S
- [HHC] (MIC) ([11]; patient F): 1.015 µg/mL
- antibiotic sensitivity ([11]; patient F): S
- MIC [12, 13]: 1.01 µg/mL (≈ 2.5 µM)
- antibiotic sensitivity ([12]; patient G, OxaRSA, threshold not given): S
